Laboratory results: the supplement of paper PMC6315032

Experiments:
Assay in all cases: apparent dissociation constant (pKDapp, Kinobeads competition, Cheng-Prusoff corrected) (-log10 M); higher = tighter binding
[1] = biological target: PIK3C2B (UniProt O00750)
[2] = biological target: PDIK1L (UniProt Q8N165); settings: affinity matrix / lysate: Kinobeads, mixed HEK293/K-562/placenta lysate
[3] = biological target: CAMKK2 (UniProt Q96RR4); settings: affinity matrix / lysate: Kinobeads, mixed HEK293/K-562/placenta lysate
[4] = biological target: TBK1 (UniProt Q9UHD2); settings: affinity matrix / lysate: Kinobeads, mixed HEK293/K-562/placenta lysate
[5] = biological target: EPHB1 (UniProt P54762); settings: affinity matrix / lysate: Kinobeads, mixed HEK293/K-562/placenta lysate
[6] = biological target: STK4 (UniProt Q13043); settings: affinity matrix / lysate: Kinobeads, mixed HEK293/K-562/placenta lysate
[7] = biological target: EPHB2 (UniProt P29323); settings: affinity matrix / lysate: Kinobeads, mixed HEK293/K-562/placenta lysate
[8] = biological target: TEC (UniProt P42680); settings: affinity matrix / lysate: Kinobeads, mixed HEK293/K-562/placenta lysate
[9] = biological target: STK33 (UniProt Q9BYT3); settings: affinity matrix / lysate: Kinobeads, mixed HEK293/K-562/placenta lysate
[10] = biological target: ACVR2B (UniProt Q13705); settings: affinity matrix / lysate: Kinobeads, mixed HEK293/K-562/placenta lysate
[11] = biological target: NEK7 (UniProt Q8TDX7); settings: affinity matrix / lysate: Kinobeads, mixed HEK293/K-562/placenta lysate
[12] = biological target: IRAK3 (UniProt Q9Y616); settings: affinity matrix / lysate: Kinobeads, mixed HEK293/K-562/placenta lysate
[13] = biological target: TAOK3 (UniProt Q9H2K8); settings: affinity matrix / lysate: Kinobeads, mixed HEK293/K-562/placenta lysate
[14] = biological target: MYLK3 (UniProt Q32MK0); settings: affinity matrix / lysate: Kinobeads, mixed HEK293/K-562/placenta lysate
[15] = biological target: MAPK7 (UniProt Q13164); settings: affinity matrix / lysate: Kinobeads, mixed HEK293/K-562/placenta lysate
[16] = biological target: PI4K2B (UniProt Q8TCG2); settings: affinity matrix / lysate: Lipid Kinobeads, mixed HeLa/Jurkat/K-562 lysate
[17] = biological target: CDC2 (UniProt P06493); settings: affinity matrix / lysate: Kinobeads, mixed HEK293/K-562/placenta lysate
[18] = biological target: NEK1 (UniProt Q96PY6); settings: affinity matrix / lysate: Kinobeads, mixed HEK293/K-562/placenta lysate
[19] = biological target: PRKAA2 (UniProt P54646); settings: affinity matrix / lysate: Kinobeads, mixed HEK293/K-562/placenta lysate
[20] = biological target: FGFR1 (UniProt P11362); settings: affinity matrix / lysate: Kinobeads, mixed HEK293/K-562/placenta lysate
[21] = biological target: MAP4K5 (UniProt Q9Y4K4); settings: affinity matrix / lysate: Kinobeads, mixed HEK293/K-562/placenta lysate
[22] = biological target: PRKG1 (UniProt Q13976); settings: affinity matrix / lysate: Kinobeads, mixed HEK293/K-562/placenta lysate
[23] = biological target: RPS6KA5 (UniProt O75582); settings: affinity matrix / lysate: Kinobeads, mixed HEK293/K-562/placenta lysate
[24] = biological target: EPHB6 (UniProt O15197); settings: affinity matrix / lysate: Kinobeads, mixed HEK293/K-562/placenta lysate
[25] = biological target: PI4KB (UniProt Q9UBF8); settings: affinity matrix / lysate: Lipid Kinobeads, mixed HeLa/Jurkat/K-562 lysate
[26] = biological target: IKBKB (UniProt O14920); settings: affinity matrix / lysate: Kinobeads, mixed HEK293/K-562/placenta lysate
[27] = biological target: CSF1R (UniProt P07333); settings: affinity matrix / lysate: Kinobeads, mixed HEK293/K-562/placenta lysate
[28] = biological target: CDK8 (UniProt P49336); settings: affinity matrix / lysate: Kinobeads, mixed HEK293/K-562/placenta lysate
[29] = biological target: CDK10 (UniProt Q15131); settings: affinity matrix / lysate: Kinobeads, mixed HEK293/K-562/placenta lysate
[30] = biological target: PDGFRA (UniProt P16234); settings: affinity matrix / lysate: Kinobeads, mixed HEK293/K-562/placenta lysate
[31] = biological target: ACVR1 (UniProt Q04771); settings: affinity matrix / lysate: Kinobeads, mixed HEK293/K-562/placenta lysate
[32] = biological target: MARK1 (UniProt Q9P0L2); settings: affinity matrix / lysate: Kinobeads, mixed HEK293/K-562/placenta lysate
[33] = biological target: DYRK1A (UniProt Q13627); settings: affinity matrix / lysate: Kinobeads, mixed HEK293/K-562/placenta lysate
[34] = affinity matrix / lysate: Lipid Kinobeads, mixed HeLa/Jurkat/K-562 lysate

Sequence of PIK3C2B (O00750 whole entry): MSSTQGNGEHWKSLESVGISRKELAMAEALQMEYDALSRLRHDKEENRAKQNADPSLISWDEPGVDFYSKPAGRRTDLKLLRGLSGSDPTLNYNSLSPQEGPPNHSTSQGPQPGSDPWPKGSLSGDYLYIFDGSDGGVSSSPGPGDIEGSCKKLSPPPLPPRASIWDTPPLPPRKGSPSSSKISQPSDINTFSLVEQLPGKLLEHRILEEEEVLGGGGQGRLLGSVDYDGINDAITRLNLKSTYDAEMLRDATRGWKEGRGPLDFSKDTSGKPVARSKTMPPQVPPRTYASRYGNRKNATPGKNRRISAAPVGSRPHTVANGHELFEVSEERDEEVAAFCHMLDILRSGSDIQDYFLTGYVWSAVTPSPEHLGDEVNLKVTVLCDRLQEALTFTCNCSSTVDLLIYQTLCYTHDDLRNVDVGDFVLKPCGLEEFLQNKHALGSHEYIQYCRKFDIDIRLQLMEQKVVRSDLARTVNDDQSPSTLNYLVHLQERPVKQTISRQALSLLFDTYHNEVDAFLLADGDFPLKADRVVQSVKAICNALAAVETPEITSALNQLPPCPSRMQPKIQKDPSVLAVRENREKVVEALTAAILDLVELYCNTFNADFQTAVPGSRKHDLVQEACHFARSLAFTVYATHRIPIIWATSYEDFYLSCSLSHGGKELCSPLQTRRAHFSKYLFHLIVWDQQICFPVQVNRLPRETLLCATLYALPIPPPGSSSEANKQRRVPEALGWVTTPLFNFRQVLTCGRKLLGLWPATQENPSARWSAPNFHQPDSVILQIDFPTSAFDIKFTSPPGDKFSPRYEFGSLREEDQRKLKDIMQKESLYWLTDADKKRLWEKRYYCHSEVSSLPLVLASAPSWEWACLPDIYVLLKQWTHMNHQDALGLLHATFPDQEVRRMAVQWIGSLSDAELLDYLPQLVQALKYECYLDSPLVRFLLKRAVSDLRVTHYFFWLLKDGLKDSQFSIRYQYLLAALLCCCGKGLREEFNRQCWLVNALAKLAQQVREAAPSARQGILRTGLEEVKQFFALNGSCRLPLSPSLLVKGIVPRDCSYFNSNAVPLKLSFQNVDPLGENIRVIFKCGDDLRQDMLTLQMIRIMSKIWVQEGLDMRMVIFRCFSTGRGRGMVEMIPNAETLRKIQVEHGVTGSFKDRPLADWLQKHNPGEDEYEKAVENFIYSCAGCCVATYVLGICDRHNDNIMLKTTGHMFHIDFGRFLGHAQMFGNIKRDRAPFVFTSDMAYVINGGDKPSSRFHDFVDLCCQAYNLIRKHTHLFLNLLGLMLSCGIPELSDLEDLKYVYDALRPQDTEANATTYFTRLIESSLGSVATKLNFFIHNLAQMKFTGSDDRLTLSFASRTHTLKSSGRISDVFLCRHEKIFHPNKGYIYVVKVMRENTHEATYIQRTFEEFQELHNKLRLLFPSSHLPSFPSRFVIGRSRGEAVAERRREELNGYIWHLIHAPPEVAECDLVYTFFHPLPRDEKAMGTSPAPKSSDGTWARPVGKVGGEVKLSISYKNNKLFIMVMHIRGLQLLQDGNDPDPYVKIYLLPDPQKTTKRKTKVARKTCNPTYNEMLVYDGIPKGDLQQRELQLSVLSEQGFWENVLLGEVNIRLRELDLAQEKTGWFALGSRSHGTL
Sequence of CAMKK2 (Q96RR4 whole entry, looked up): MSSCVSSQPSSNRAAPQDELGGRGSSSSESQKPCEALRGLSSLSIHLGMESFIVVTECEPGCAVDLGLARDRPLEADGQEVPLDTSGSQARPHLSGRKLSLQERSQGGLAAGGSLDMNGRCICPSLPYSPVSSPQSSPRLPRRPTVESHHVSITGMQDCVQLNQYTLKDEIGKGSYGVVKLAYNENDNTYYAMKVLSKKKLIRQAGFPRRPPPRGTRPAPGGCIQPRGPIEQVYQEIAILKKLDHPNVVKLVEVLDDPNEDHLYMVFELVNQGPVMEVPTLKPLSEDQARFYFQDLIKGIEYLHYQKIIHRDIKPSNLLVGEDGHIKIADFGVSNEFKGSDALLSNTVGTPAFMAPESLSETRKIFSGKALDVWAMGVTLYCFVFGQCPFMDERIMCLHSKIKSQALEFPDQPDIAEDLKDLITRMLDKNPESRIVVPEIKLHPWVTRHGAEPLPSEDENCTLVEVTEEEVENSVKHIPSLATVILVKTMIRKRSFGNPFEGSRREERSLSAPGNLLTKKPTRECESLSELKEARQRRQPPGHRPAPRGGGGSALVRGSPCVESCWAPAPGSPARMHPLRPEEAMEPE
Sequence of PDIK1L (Q8N165 whole entry): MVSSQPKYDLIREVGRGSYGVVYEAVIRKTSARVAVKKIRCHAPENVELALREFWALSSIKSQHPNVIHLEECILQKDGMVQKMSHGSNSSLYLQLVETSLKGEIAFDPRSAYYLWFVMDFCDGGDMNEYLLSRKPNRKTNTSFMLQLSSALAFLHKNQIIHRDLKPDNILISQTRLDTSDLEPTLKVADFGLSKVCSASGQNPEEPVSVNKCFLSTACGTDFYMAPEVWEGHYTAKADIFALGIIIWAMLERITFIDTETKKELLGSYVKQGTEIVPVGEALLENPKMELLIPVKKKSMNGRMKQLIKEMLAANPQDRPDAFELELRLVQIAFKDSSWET
Sequence of EPHB2 (P29323 whole entry): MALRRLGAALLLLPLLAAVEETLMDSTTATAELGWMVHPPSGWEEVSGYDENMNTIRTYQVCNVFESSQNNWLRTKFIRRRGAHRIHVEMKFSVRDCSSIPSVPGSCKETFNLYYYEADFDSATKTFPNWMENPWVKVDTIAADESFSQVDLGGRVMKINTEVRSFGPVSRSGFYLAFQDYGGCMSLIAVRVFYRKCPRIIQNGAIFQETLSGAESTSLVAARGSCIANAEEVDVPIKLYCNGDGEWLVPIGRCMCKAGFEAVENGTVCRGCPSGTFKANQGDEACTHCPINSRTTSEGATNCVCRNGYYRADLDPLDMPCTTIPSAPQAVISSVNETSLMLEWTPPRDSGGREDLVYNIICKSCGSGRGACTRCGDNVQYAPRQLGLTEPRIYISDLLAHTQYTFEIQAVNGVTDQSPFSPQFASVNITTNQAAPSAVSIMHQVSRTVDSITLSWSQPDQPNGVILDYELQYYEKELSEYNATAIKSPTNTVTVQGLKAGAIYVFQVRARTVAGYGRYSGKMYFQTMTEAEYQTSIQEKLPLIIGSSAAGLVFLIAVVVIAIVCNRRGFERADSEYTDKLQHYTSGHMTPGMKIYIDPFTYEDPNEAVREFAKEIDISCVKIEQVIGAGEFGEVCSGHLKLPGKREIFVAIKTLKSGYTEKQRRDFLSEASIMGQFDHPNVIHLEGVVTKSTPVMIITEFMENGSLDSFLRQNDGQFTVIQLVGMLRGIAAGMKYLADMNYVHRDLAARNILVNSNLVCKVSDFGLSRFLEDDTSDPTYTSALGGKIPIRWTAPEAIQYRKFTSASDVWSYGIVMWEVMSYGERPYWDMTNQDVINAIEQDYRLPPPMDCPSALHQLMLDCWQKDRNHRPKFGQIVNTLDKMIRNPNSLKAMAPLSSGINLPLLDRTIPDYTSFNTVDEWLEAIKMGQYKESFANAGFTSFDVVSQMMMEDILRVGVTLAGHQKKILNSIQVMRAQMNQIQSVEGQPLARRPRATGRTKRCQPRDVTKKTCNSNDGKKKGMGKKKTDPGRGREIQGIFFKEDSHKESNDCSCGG
Sequence of TBK1 (Q9UHD2 whole entry): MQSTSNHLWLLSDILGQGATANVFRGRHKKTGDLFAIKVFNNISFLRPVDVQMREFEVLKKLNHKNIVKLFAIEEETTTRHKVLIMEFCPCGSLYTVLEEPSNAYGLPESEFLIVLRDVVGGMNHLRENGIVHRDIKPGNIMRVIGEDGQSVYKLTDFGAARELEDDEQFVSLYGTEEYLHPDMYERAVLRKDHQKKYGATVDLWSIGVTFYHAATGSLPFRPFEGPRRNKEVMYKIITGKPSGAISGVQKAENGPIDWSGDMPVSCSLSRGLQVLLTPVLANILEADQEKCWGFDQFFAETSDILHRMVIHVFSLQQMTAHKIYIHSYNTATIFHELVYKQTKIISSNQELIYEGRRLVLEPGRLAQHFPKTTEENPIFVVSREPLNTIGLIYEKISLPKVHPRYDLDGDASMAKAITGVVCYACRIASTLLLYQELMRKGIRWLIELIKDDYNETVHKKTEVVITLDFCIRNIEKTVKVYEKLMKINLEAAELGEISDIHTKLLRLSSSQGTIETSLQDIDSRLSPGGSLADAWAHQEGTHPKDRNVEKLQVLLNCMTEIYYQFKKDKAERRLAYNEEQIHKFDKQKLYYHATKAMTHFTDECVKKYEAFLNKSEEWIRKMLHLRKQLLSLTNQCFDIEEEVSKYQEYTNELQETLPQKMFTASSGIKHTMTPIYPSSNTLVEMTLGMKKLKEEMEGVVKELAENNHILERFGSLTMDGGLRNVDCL
Sequence of TEC (P42680 whole entry): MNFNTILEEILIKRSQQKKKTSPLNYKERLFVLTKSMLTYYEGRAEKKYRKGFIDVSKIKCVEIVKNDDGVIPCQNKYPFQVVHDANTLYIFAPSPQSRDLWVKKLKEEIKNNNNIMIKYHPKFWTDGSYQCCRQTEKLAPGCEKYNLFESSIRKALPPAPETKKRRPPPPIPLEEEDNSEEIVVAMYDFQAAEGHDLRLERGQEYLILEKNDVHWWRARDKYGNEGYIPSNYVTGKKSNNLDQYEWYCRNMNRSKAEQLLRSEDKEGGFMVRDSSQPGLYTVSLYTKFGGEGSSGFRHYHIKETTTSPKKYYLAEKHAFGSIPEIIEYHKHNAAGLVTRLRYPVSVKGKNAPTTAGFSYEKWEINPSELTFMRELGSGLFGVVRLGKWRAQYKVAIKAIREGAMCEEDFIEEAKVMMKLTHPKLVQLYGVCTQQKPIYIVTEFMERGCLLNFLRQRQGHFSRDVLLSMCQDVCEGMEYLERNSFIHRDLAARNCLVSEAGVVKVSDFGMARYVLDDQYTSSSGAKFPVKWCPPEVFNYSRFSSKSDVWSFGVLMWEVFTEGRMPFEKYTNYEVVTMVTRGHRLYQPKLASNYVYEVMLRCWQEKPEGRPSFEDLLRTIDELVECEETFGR

| apparent dissociation constant (-log10 M) [1, 34] | apparent dissociation constant (-log10 M) [2] | apparent dissociation constant (-log10 M) [3] | apparent dissociation constant (-log10 M) [4] | apparent dissociation constant (-log10 M) [5] | apparent dissociation constant (-log10 M) [6] | apparent dissociation constant (-log10 M) [7] | apparent dissociation constant (-log10 M) [8] | apparent dissociation constant (-log10 M) [9] | apparent dissociation constant (-log10 M) [10] | apparent dissociation constant (-log10 M) [11] | apparent dissociation constant (-log10 M) [12] | apparent dissociation constant (-log10 M) [13] | apparent dissociation constant (-log10 M) [14] | apparent dissociation constant (-log10 M) [15] | apparent dissociation constant (-log10 M) [16] | apparent dissociation constant (-log10 M) [17] | apparent dissociation constant (-log10 M) [18] | apparent dissociation constant (-log10 M) [19] | apparent dissociation constant (-log10 M) [20] | apparent dissociation constant (-log10 M) [21] | apparent dissociation constant (-log10 M) [22] | apparent dissociation constant (-log10 M) [23] | apparent dissociation constant (-log10 M) [24] | apparent dissociation constant (-log10 M) [25] | apparent dissociation constant (-log10 M) [26] | apparent dissociation constant (-log10 M) [27] | apparent dissociation constant (-log10 M) [28] | apparent dissociation constant (-log10 M) [29] | apparent dissociation constant (-log10 M) [30] | apparent dissociation constant (-log10 M) [31] | apparent dissociation constant (-log10 M) [32] | apparent dissociation constant (-log10 M) [33] | apparent dissociation constant (-log10 M) ([1]; affinity matrix / lysate: Kinobeads, mixed HEK293/K-562/placenta lysate) | SMILES |
| --- | --- | --- | --- | --- | --- | --- | --- | --- | --- | --- | --- | --- | --- | --- | --- | --- | --- | --- | --- | --- | --- | --- | --- | --- | --- | --- | --- | --- | --- | --- | --- | --- | --- | --- |
| < 6 | < 6 | < 6 | < 6 | < 6 | < 6 | < 6 | < 6 | < 6 | < 6 | < 6 | < 6 | < 6 | < 6 | < 6 | < 6 | < 6 | < 6 | < 6 | < 6 | < 6 | < 6 | < 6 | < 6 | < 6 | < 6 | < 6 | < 6 | < 6 | < 6 | < 6 | < 6 | < 6 | – | COc1ccc(-c2ccc3c(N4CCOC[C@@H]4C)nc(N4CCOC[C@@H]4C)nc3n2)cc1CO [AZD8055] |
| < 6 | < 6 | < 6 | < 6 | < 6 | < 6 | < 6 | < 6 | < 6 | < 6 | < 6 | < 6 | < 6 | < 6 | < 6 | < 6 | < 6 | < 6 | < 6 | < 6 | < 6 | < 6 | < 6 | < 6 | < 6 | < 6 | < 6 | < 6 | < 6 | < 6 | < 6 | < 6 | < 6 | < 6 | CCNC(=O)Nc1ccc(-c2nc(N3CCOC[C@@H]3C)c3c(n2)C(C)(C)S(=O)(=O)C3)cc1 [CZ415] |
